Experimental data reported in the supplement of paper PMC8253809.

Experiments:
HGGX6 [1] = H3.3 G34R paediatric high-grade glioma line; test: EC50 (inflection of fitted growth-inhibition curve) (log10 M)
Outline: (§1)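 Viability readout was CellTiter-Glo luminescence, log2-transformed, normalised per plate to % activity between negative (solvent) and positive control wells, then pooled. This followed a 7-day exposure (3 days for iAstro) at 37 °C, 5% CO2 to a 10-point threefold dilution series (mean top concentration 35 μM), pin-tool delivered in triplicate to patient-derived pHGG/DIPG cell lines and astrocyte controls on 1% Geltrex-coated 384-well plates. Three- and four-parameter log-logistic fits were compared, and the one with the lowest AICc supplied EC50 and maximal response (yFin).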

HGGX39 [2] = paediatric high-grade glioma line; test: as above
Outline: as §1

DIPGX29 [3] = H3.3 K27M diffuse intrinsic pontine glioma line; test: as above
Outline: as §1

DIPGX37 [4] = H3.3 K27M diffuse intrinsic pontine glioma line; test: as above
Outline: as §1

HGGX6 [5] = test: area under dose-response curve of % growth inhibition (log2 RLU vs DMSO / staurosporine), 1e-11 to 1e-4 M (% x log10 M); higher = more growth inhibition
Outline: (§2)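 Patient-derived pHGG/DIPG cell lines and astrocytes, cultured on 384-well plates with a 1% Geltrex coating, were given a 10-point threefold dilution series (mean top concentration 35 μM) in triplicate for 7 days (iAstro 3 days) at 37 °C, 5% CO2. CellTiter-Glo signal, log2-transformed and normalised per plate to % activity against solvent and positive controls, was fitted with a log-logistic curve or, where the sigmoid fit failed, a smoothing spline. Area under the curve was then computed by the trapezoid rule.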

HGGX39 [6] = test: as above
Outline: as §2

DIPGX29 [7] = test: as above
Outline: as §2

DIPGX37 [8] = test: as above
Outline: as §2

HGGX6 [9] = test: maximal growth inhibition (yFin) relative to DMSO / staurosporine; higher = more efficacious
Outline: as §1

HGGX39 [10] = test: as above
Outline: as §1

DIPGX29 [11] = test: as above
Outline: as §1

DIPGX37 [12] = test: as above
Outline: as §1

Row | SMILES | EC50 (log10 M) (HGGX6 [1]) | EC50 (log10 M) (HGGX39 [2]) | EC50 (log10 M) (DIPGX29 [3]) | EC50 (log10 M) (DIPGX37 [4]) | area under dose-response curve (HGGX6 [5]) | area under dose-response curve (HGGX39 [6]) | area under dose-response curve (DIPGX29 [7]) | area under dose-response curve (DIPGX37 [8]) | maximal growth inhibition (HGGX6 [9]) [%] | maximal growth inhibition (HGGX39 [10]) [%] | maximal growth inhibition (DIPGX29 [11]) [%] | maximal growth inhibition (DIPGX37 [12]) [%]
1 | Cc1nc(-c2cccnc2)sc1C(=O)Nc1ccccc1-c1cn2c(CN3CCOCC3)csc2n1 [SRT2104] | -5.21 | -4.84 | -5.16 | -5.24 | 80.8 | 60.9 | 79.7 | 101 | 67.3 | 72.4 | 69 | 68.5
2 | Nc1cc(C(F)(F)F)c(-c2cc(N3CCOCC3)nc(N3CCOCC3)n2)cn1 [BUPARLISIB] | -6.21 | -5.56 | -5.14 | -5.55 | 43.9 | 58.2 | 81.3 | 95.5 | 21.8 | 41.2 | 67.8 | 59.3
3 | CNC(=O)c1cc(Oc2ccc(NC(=O)Nc3ccc(Cl)c(C(F)(F)F)c3)c(F)c2)ccn1 [REGORAFENIB] | -5.33 | -5.33 | -4.87 | -5.37 | 70.8 | 55.2 | 39.5 | 62.5 | 38 | 33.2 | 37.6 | 43.5
4 | CO[C@@]12[C@H](COC(N)=O)C3=C(C(=O)C(C)=C(N)C3=O)N1C[C@@H]1N[C@@H]12 [MITOMYCIN C] | -4.76 | -4.78 | -4.78 | -4.87 | 75.4 | 91.5 | 78 | 95.2 | 66.2 | 69.7 | 62.3 | 73
5 | Fc1ccc(C(c2ccc(F)cc2)N2CCN(C/C=C/c3ccccc3)CC2)cc1 [FLUNARIZINE] | -4.86 | -4.91 | -4.86 | -4.84 | 56.4 | 73.5 | 61.5 | 62.8 | 65.9 | 83 | 71.7 | 74.5
6 | CCOC(=O)C1=C(C)NC(C)=C(C(=O)OCC)C1c1ccccc1/C=C/C(=O)OC(C)(C)C [LACIDIPINE] | -4.86 | -4.84 | -4.84 | -4.83 | 63.4 | 76.3 | 72.8 | 75.3 | 74.3 | 90.8 | 87.2 | 91.1
7 | Nc1nc2n[nH]nc2c(=O)[nH]1 [AZAGUANINE-8] | -5.25 | -5.31 | -5.14 | -5.07 | 31.2 | 74.2 | 45 | 58.7 | 25.9 | 54.2 | 38.3 | 53.8
8 | N=C(N)c1ccc(OCCCCCOc2ccc(C(=N)N)cc2)cc1 [PENTAMIDINE] | -5.4 | -6.05 | -5.15 | -5.08 | 45.3 | 66.5 | 55.6 | 50 | 33.1 | 32.4 | 38.4 | 31.7
9 | CNC(=O)c1cc(Oc2ccc(NC(=O)Nc3ccc(Cl)c(C(F)(F)F)c3)cc2)ccn1 [SORAFENIB] | -4.9 | -4.96 | -4.82 | -4.9 | 77.2 | 77 | 46.9 | 104 | 75.3 | 80.4 | 57.2 | 79
10 | CCn1c(=O)c(-c2ccc(Cl)cc2Cl)cc2cnc(Nc3ccc(N4CCNCC4)c(F)c3)nc21 [FRAX486] | -5.32 | -5.64 | -5.23 | -5.3 | 97.4 | 139 | 135 | 142 | 73.5 | 84.5 | 80.4 | 81
11 | CC(C)/N=c1\cc2n(-c3ccc(Cl)cc3)c3ccccc3nc-2cc1Nc1ccc(Cl)cc1 [CLOFAZIMINE] | -4.91 | -4.88 | -5.16 | -4.91 | 65.3 | 79.8 | 76.3 | 84.9 | 71.5 | 90.6 | 54.4 | 83.8
12 | O=C1NCCc2[nH]c(-c3ccncc3)cc21 | -5.81 | -5.41 | -5.62 | -5.9 | 124 | 98.2 | 110 | 111 | 65.9 | 71.2 | 67.8 | 58.9
13 | C[C@@H](NCCCc1cccc(C(F)(F)F)c1)c1cccc2ccccc12 [CINACALCET] | -5.03 | -5.05 | -5.03 | -5.04 | 98.5 | 111 | 99.9 | 112 | 84.4 | 94.2 | 82.1 | 90.5
14 | COc1cc2ncnc(Nc3ccc(F)c(Cl)c3)c2cc1OCCCN1CCOCC1 [GEFITINIB] | -4.67 | -4.65 | -4.7 | -4.66 | 47.8 | 47.9 | 54.3 | 46.1 | 65.7 | 73.7 | 58.3 | 69.8
15 | Clc1ccc(COC(Cn2ccnc2)c2ccc(Cl)cc2Cl)c(Cl)c1 (centres undefined) [MICONAZOLE] | -4.87 | -4.94 | -4.89 | -4.79 | 35.5 | 39.2 | 46.5 | 48.6 | 41.5 | 42.1 | 45.9 | 61.9
16 | COc1cc(OC2CCN(C)CC2)ccc1Nc1ncc2c(n1)n(C1CCCC1)c(=O)n2C [AZ3146] | -4.82 | -4.85 | -4.86 | -4.79 | 86.9 | 88.5 | 92.5 | 86.8 | 96.5 | 105 | 103 | 110
17 | COc1cc2nc(N3CCN(C(=O)c4ccco4)CC3)nc(N)c2cc1OC [PRAZOSIN] | -5.03 | -4.9 | -4.88 | -4.92 | 76.9 | 66.9 | 66.6 | 75.3 | 75 | 74.7 | 75.3 | 75.4
